Experiments:
Assay type in all cases: cell-based, human
HPAEpiC cells = assay: LPS+hypoxia model, LDH release, alveolar epithelial cells
Experimental: HPAEpiC cells were cultured with alveolar epithelial cell medium. When the cells grew to about 80% confluence, the cells were digested with 0.25% trypsin, and then pipetted evenly with alveolar epithelial cell medium. The cell concentration was adjusted to 2×10^5 cells/mL, and the cells were seeded in a 24-well plate at 400 uL/well. The experiment was conducted when the cells grew to about 70% confluence.
The hypoxia workstation was set to have an oxygen concentration of 1% (1% O2, 5% CO2, 94% a temperature to 37° C., and a humidity of 85%. After the conditions in the hypoxia workstation were stable, 1 mg/mL LPS was directly added to the cells to make the final concentration of LPS […], and then the cells were cultured in the hypoxia workstation for 24 hours.
Before being subjected to the model, the cells in the drug group were pre-incubated with vehicle (20% hydroxypropyl cyclodextrin solution) or drug (the final concentration of YC-6 was 1 μM, 5 μM, 10 μM) for 1 hour, and then added with LPS, and placed in the hypoxia workstation for constructing the model, until the end of the experiment. The model control group was not treated with any drug, and the normal group was placed in a cell incubator for routine culturing. 10 μM dexamethasone was used as the drug control. Three replicates were performed for each treatment group.

NR4A3 = NR4A3 protein expression under OGD-R, HUVEC (Western blot, immunofluorescence); conditions: OGD 4 hours, restoration 24 hours, 1, 3, 10 μM given at restoration
Experimental: (§1) HUVEC cells were cultured in modified DMEM medium containing 10% fetal bovine serum. When the cells reached about 80% confluence, the cells were digested with 0.25% trypsin, and then pipetted evenly with modified DMEM containing 10% […]. The cell concentration was adjusted to 1×10^5 cells/mL, and the cells were seeded at 400 uL/well in a 24-well plate, and the experiment was carried out when the cells grew to about 70% confluence. RAOEC cells were cultured in high-glucose DMEM medium containing 10% fetal bovine serum, and the seeding conditions were the same as those of HUVEC. During the OGD-R injury treatment, the hypoxia workstation was set to have an oxygen concentration of 1% (1% O2, 5% CO2, 94% N2), a temperature of 37° C., and a humidity of 85%. A sugar-free DMEM medium was placed in the hypoxia workstation for pre-hypoxia for 3 hours. The medium in the culture plate was aspirated, and the plate was washed twice with preheated sugar-free DMEM medium, and 100 uL of sugar-free DMEM medium was added to each well. The culture plate was placed in the hypoxia workstation, and 300 uL of pre-hypoxic sugar-free DMEM medium was added to each well, and then the culture plate was placed in the hypoxia workstation for additional hypoxia for 4 hours. Restoration was then performed. The culture plate was taken out, and the sugar-free DMEM medium was replaced with 400 uL of normal medium containing 10% fetal bovine serum, and then the plate was placed in a 37° C. 5% CO2 cell incubator for culturing for 24 hours or a specified time period. For the cells in the normal group, it was only replaced with 400 uL of new normal medium containing 10% fetal bovine serum. […]
The cells were washed twice with pre-cooled PBS, then scraped off with a cell scraper and transferred to a 1.5 mL centrifuge tube, and centrifugation was performed at 4° C. and 1000 g for 5 minutes. […] Each protein sample was then quantified using the BCA protein quantification kit. After protein quantification, protein lysis buffer was used to adjust the protein concentration of each sample to be consistent with the protein sample with the lowest concentration, and then each protein sample was sufficiently mixed with 5× protein loading buffer at a ratio of 4:1. […]

NR4A3 mRNA = NR4A3 mRNA under OGD-R, HUVEC (real-time fluorescent quantitative PCR); conditions: 10 μM given at restoration
Experimental: as §1, with “performed.” for “performed. The culture plate was taken out, and the sugar-free DMEM medium was replaced with 400 uL of normal medium containing 10% fetal bovine serum, and then the plate was placed in a 37° C. 5% CO2 cell incubator for culturing for 24 hours or a specified time period. For the cells in the normal group, it was only replaced with 400 uL of new normal medium containing 10% fetal bovine serum.”

## C[C@@]12CCCC1C1C[C@@H](O)[C@]3(O)C[C@@H](O)CC[C@]3(C)C1CC2 (stereo partly drawn) [YC-6, 5α-androst-3β,5,6β-triol]
HPAEpiC cells; 10 μM, LPS and 1% O2 for 24 hours
  protective effect compared with 10 μM dexamethasone (LDH release): significantly better protective effect than dexamethasone
HPAEpiC cells; 1, 5, 10 μM, 1 hour pre-incubation, 20 μg/mL LPS and 1% O2 for 24 hours
  damage to alveolar epithelial cells (LDH release) induced by hypoxia and LPS: dose-dependently reduce damage to alveolar epithelial cells
NR4A3
  NR4A3 protein expression: dose-dependently increase the protein expression of NR4A3
NR4A3 mRNA
  transcription level of NR4A3 (relative mRNA expression): did not significantly up-regulate the transcription level of NR4A3

Reference: patent US12594282B2, “Use of small molecule compounds in the treatment of diseases mediated by lung epithelial cell injury and/or vascular endothelial cell injury” (Guangzhou Cellprotek Pharmaceutical Co., Ltd., priority 2020, dated 2026)
